According to patent US11484535B2, “Liquid formulations of (S)-N-(5-((R)-2-(2,5-difluorophenyl)-pyrrolidin-1-yl)-pyrazolo[1,5-a] pyrimidin-3-yl)-3-hydroxypyrrolidine-1-carboxamide” (Loxo Oncology, Inc., priority 2016, dated 2022):
Structures can show the parent of a compound that is named as a salt.

Tests used:
[1] = Accelerated stability study in an LDPE bag at 40° C./75% RH for five weeks; assay type: physicochemical
[2] = Dynamic vapor sorption (DVS) isotherm, hygroscopicity; assay type: physicochemical
Experimental: For the DVS measurement a sample of crystalline form (I-HS) was cycled through changing humidity conditions to determine its hygroscopicity. The sample was analyzed using a Surface Measurement System DVS-1 Dynamic Vapor Sorption System. […] Data was collected in 1 minute intervals. Nitrogen was used as the carrier gas. […] After completion of the sorption cycle, the sample was dried using the same procedure, but all the way down to 0% RH and finally taken back to the starting point of 20% RH. The weight change during the sorption/desorption cycles were plotted, allowing for the hygroscopic nature of the sample to be determined.
A small increase in mass of about 1.7% was observed between 0% and 90% RH during the sorption cycle.

[3] = system: Infantile Fibrosarcoma with NTRK3-ETV6 Fusion; experiment: Phase 1 pediatric dose-escalation study (NCT02637687), oral liquid formulation of Compound I-HS, case of one patient

| SMILES | change in chemical impurity levels [1] | hygroscopicity by DVS ([2]; 20-90% RH ramp, 10% increments) | change in crystalline form during DVS (XRPD post vs pre DVS) ([2]; XRPD after DVS analysis) | reduction in the size and enhancement of the mass from baseline ([3]; MR of the brain and neck, end of cycle 1 (day 28), BID dosing, patient) | response on repeat scans ([3]; end of Cycle 2, MR of the brain and neck) | adverse events related to the compound ([3]; first two cycles (28-day cycles)) |
| --- | --- | --- | --- | --- | --- | --- |
| O=C(Nc1cnn2ccc(N3CCC[C@@H]3c3cc(F)ccc3F)nc12)N1CC[C@H](O)C1.O=S(=O)(O)O [AM(HS), (S)—N-(5-((R)-2-(2,5-difluorophenyl)-pyrrolidin-1-yl)-pyrazolo[1,5-a]pyrimidin-3-yl)-3-hydroxypyrrolidine-1-carboxamide hydrogen sulfate] | neither the AM(HS) or crystalline form (I-HS) exhibited a significant changes in chemical impurity levels |  |  |  |  |  |
| O=C(Nc1cnn2ccc(N3CCC[C@@H]3c3cc(F)ccc3F)nc12)N1CC[C@H](O)C1 [Compound I-HS, (S)—N-(5-((R)-2-(2,5-difluorophenyl)-pyrrolidin-1-yl)-pyrazolo[1,5-a]pyrimidin-3-yl)-3-hydroxypyrrolidine-1-carboxamide hydrogen sulfate] | neither the AM(HS) or crystalline form (I-HS) exhibited a significant changes in chemical impurity levels | non-hygroscopic | no change | more than 90% | partial response | no adverse events |
